Test results reported in paper PMC10683014, “Amino Acids as Chelating Ligands for Platinum: Enhanced Stability in an Aqueous Environment Promoted by Biocompatible Molecules” (Journal of Medicinal Chemistry, 2023).

Key:
[1] = Stability in concentrated trimethylglycine (TMG) aqueous solution followed by capillary electrophoresis; assay type: physicochemical; conditions: dissolved in 50% w/v TMG, diluted to final TMG 25%; CE at 230 nm
From the text: Kadokawa et al.[35] reported that a highly concentrated solution of trimethyl glycine (TMG, also known as betaine) is able to improve the solubility of cisplatin in water without affecting the pharmacological proprieties of this drug. The mechanism behind this effect seems to lie in the hydrogen bond acceptor property of the carboxylate of TMG, which establishes hydrogen bonds with the amino groups of cisplatin. Betaine is a nontoxic compound and is highly soluble in water. On the basis of this study, we decided to test the solubility of 3 in a highly concentrated (50% w/v) TMG aqueous solution. The platinum compound was soluble enough to allow investigations with the established protocol for capillary electrophoresis. TMG has a strong absorption at low wavelengths, and therefore, a wavelength of 230 nm was chosen instead of 195 nm for recording the electropherograms with TMG.
(§1) A solution of sodium tetraborate (final borate concentration of 50 mM) and sodium dodecyl sulfate (100 mM) was used as a background electrolyte (BGE). The pH of the BGE was adjusted to 9.3 by titration with 1 M NaOH. Every new capillary was rinsed with 1 M NaOH (45 min), water (45 min), and BGE (45 min) before the first use. The capillary was kept on a constant temperature of 25 °C, whereas the sample carousel was temperature-controlled at 37 °C. Sample injection was performed in hydrodynamic mode, applying a pressure of 50 mbar for 2 s on the inlet vial. The separation voltage was set at +20 kV. If not stated differently, a wavelength of 195 nm was employed for the DAD detector. The analytic window was evaluated by using dodecaphenone as a micellar marker and methanol (HPLC grade) as an electroosmotic flow (EOF) marker. The run time required for the analysis was estimated to be 25 min. The capillary was flushed before every run with 0.1 M NaOH (3 min), water (3 min), and BGE (5 min). Every value is calculated from at least three independent measurements. The half-lives were presented as the mean ± standard deviation. All of the samples, buffers, and washing solutions were membrane-filtered (0.22 μm pore size). All samples employed for stability experiments were prepared using benzoic acid as an internal standard (IS).

[2] = system: MDA-MB-231 breast cancer cell line; experiment: MTT metabolic activity (cytotoxicity) assay, MDA-MB-231; assay type: cell-based; conditions: for IC50: MTT, 72 h incubation; for metabolic activity (residual) on MDA-MB-231: 25 μM, without compounds set at 100%
Experimental: (§2) In order to determine the antitumor activity of the platinum complexes, in vitro cytotoxicity tests were performed. Compounds 1–4 were tested with cisplatin as a reference on the breast cancer cell line MCF-7 and the colon carcinoma cell line HT-29. Complexes 1, 4, and 5, as well as the ligand (but-3-en-1-yl 2-acetoxybenzoate, 6) were additionally evaluated on MDA-MB-231 cells and A2780cis cells, also using cisplatin as a reference. The metabolic activity as an indicator of cytotoxicity was determined by a classical 3-(4,5-dimethylthiazol-2-yl)-2,5-diphenyltetrazoliumbromid (MTT) assay.
(§3) The cell lines A2780cis and MDA-MB-231 were cultivated in RPMI 1640 without phenol red (PAN Biotech, Aidenbach, Germany), supplemented with L-glutamine (2 mM), 100 μg/mL penicillin, 100 μg/mL streptomycin, and FCS (10%) (all from Invitrogen Corporation, Gibco, Paisley, Scotland) at 37 °C in a 5% CO2/95% air atmosphere, and passaged twice per week. To maintain resistance, A2780cis cells were incubated every second week with cisplatin (1 μM). The cell lines MCF-7 and HT-29 were grown in DMEM without phenol red (PAN Biotech, Aidenbach, Germany), containing L-glutamine, 100 μg/mL penicillin, 100 μg/mL streptomycin, sodium pyruvate ([…]) (PAN Biotech), and FCS (10%) under the same conditions as the other cell lines.
(§4) The exponentially growing cell lines were seeded at a density of 2000 cells/well for MCF-7 cells, 4000 cells/well for HT-29 cells and MDA-MB-231 cells, and 8000 cells/well for A2780cis cells, respectively, into clear flat-bottom 96-well plates in triplicates. Following 24 h of incubation for adherence at 37 °C in a humidified atmosphere (5% CO2/95% air), the compounds were added to reach the desired concentrations between 10 and 100 μM, respectively. All stock solutions were prepared in dimethylformamide at a concentration of 100 mM and were then diluted with the respective cell-culture medium to the appropriate concentrations. After another 72 h of incubation, the cellular metabolic activity was measured by employing a MTT assay. Hereby, the yellow tetrazolium salt is converted to a purple formazan salt by the functioning mitochondria. These purple crystals are then dissolved in DMSO and can be quantified via absorption measurements at 570 and 420 nm. The optical density of the particular medium was subtracted in order to exclude the unspecific staining caused by the FCS-containing medium. The values were calculated with Excel 2019 (Microsoft, Redmond, WA, USA) using nonlinear regression and the decal logarithm of the inhibitor versus variable slope equation, while the top constraint was set to 100%.

[3] = target: T1, human recombinant COX-1 (Homo sapiens, UniProt P23219); experiment: COX-1 inhibition, enzyme immunoassay (COX Inhibitor Screening Assay); assay type: biochemical; conditions: 2 min incubation
T1 construct: purchased Cayman Chemicals
Experimental: The incubation time of the compounds with the respective isoenzymes was exactly 2 min. The results are presented as the mean ± SD of three independent experiments with two replicates of each experiment.

[4] = system: MCF-7 breast cancer cell line; experiment: MTT metabolic activity (cytotoxicity) assay, MCF-7; assay type: cell-based; conditions: 72 h incubation
Experimental: as §2, §3, §4

[5] = system: HT-29 colon carcinoma cell line; experiment: MTT metabolic activity (cytotoxicity) assay, HT-29; assay type: cell-based; conditions: 72 h incubation
Experimental: as §2, §3, §4

[6] = system: A2780cis ovarian carcinoma cell line (cisplatin-resistant); experiment: MTT metabolic activity (cytotoxicity) assay, A2780cis; assay type: cell-based; conditions: for IC50: MTT, 72 h incubation; for metabolic activity (residual) on A2780cis: 25 μM, without compounds set at 100%
Experimental: as §2, §3, §4

[7] = Lipophilicity estimate from MEKC experiments (buffer/micelle partition); assay type: physicochemical; conditions: three independent experiments (one for 5 and 6)
Experimental: The lipophilicity of the tested compounds was estimated on the basis of MEKC experiments similar to Herbert and Dorsey[37] (see Table 7). The values estimated in this way were compared with theoretical values obtained from two different methods: for platinum complexes, a previously established method[38] was used, while for the organic ligand, the Osiris Property Explorer[39] was employed.
as §1

[8] = Solubility in water (qualitative observation); assay type: physicochemical
Experimental: Complex 1 was synthesized using the procedure reported by Fujita et al.,[20] and cubic bright-yellow crystals were obtained within hours. […] When a slightly lower concentration was used (0.4 mmol of platinum precursor instead of 0.5 mmol), keeping the amount of solvent constant, no crystallization occurred within a short time (3–4 h). However, some colorless needle-shaped crystals formed after an extended period of time (5–6 weeks). The crystals obtained from both conditions were analyzed via single-crystal X-ray diffractometry.
However, the release of olefin in an aqueous environment was detected to an extent of about 20% after 72 h. The chelating amino acid enhances the stability of complex 4 (>72 h) in comparison to compound 5 (69.6 ± 3.0 h).

[9] = Stability in aqueous solution followed by capillary electrophoresis; assay type: physicochemical; conditions: for half-life time (τ1/2) in water: samples at 37 °C
Experimental: The stability of complexes 1–4 was tested in an aqueous solution, to investigate how the different ways of amino acid coordination impacts aqueous degradation (see Table 4). The stability of complex 5 was previously measured in a 50% methanolic solution.[4]
as §1

[10] = target: T2, human recombinant COX-2 (Homo sapiens, UniProt P35354); experiment: COX-2 inhibition, enzyme immunoassay (COX Inhibitor Screening Assay); assay type: biochemical; conditions: 2 min incubation
T2 construct: purchased Cayman Chemicals
T2 sequence (P35354 18-604): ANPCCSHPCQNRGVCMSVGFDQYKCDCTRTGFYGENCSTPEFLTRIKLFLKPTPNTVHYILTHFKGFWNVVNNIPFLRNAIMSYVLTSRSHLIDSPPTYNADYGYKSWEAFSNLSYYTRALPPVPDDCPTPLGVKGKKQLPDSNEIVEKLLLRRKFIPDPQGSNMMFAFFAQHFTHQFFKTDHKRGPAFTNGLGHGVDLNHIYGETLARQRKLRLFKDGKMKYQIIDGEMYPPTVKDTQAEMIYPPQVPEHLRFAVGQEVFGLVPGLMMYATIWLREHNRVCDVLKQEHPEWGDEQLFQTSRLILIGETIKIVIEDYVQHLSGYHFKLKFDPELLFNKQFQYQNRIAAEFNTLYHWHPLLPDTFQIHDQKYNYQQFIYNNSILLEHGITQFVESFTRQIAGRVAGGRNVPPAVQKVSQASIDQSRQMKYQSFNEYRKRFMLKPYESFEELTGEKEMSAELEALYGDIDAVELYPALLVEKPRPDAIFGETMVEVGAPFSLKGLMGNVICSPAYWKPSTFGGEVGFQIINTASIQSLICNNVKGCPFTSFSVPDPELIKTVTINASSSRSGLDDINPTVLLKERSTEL
Experimental: Metal complexes containing an ASA moiety have been reported as inhibitors for COX-1/-2 previously.[4],[14],[40]−[44] […] Hereby, the isolated enzymes were treated with final concentrations of 10 and 25 μM of substances 1, 4, 5, and 6.
Inhibition of the isolated human recombinant COX-1 and COX-2 isoenzymes by the platinum complexes (10 and 25 μM) was evaluated using an enzyme immunoassay (EIA) (COX Inhibitor Screening Assay, Cayman Chemicals, Ann Arbor, Mi, USA) following the manufacturer’s protocol. The incubation time of the compounds with the respective isoenzymes was exactly 2 min. The results are presented as the mean ± SD of three independent experiments with two replicates of each experiment. The untreated control was set at 0% inhibition of the COX activity.

[11] = cited from earlier work

T1 sequence (P23219 24-599): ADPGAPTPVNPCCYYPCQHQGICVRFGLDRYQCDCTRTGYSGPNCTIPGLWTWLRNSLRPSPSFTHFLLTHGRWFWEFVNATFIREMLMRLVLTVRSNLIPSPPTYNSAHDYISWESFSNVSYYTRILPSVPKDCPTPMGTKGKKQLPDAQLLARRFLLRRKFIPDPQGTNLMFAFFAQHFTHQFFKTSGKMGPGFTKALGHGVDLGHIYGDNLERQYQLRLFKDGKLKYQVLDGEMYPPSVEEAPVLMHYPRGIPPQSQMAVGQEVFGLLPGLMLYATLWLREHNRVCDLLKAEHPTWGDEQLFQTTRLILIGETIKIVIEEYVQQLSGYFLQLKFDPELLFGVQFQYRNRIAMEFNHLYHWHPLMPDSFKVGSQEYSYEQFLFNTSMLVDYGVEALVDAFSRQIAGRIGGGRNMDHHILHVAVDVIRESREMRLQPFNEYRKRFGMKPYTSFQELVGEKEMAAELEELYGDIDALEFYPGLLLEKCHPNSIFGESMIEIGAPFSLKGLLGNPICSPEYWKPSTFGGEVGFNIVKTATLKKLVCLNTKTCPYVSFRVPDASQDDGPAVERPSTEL

| Molecule | half-life time (τ1/2) in TMG solution [1] [h] | IC50 [2] [µM] | % Inhibition COX-1 ([3]; 10 μM) [%] | % Inhibition COX-1 ([3]; 25 μM) [%] | IC50 [4] [µM] | IC50 [5] [µM] | IC50 [6] [µM] | coefficient of partition between buffer and micelles (k′), average [7] | % Inhibition COX-2 ([10]; 10 μM) [%] | % Inhibition COX-2 ([10]; 25 μM) [%] | further results |
| --- | --- | --- | --- | --- | --- | --- | --- | --- | --- | --- | --- |
| C=C.C[C@H](N)C(=O)[O][Pt][Cl] [1a, (Ethylene,N-trans)(L-alaninato-N,O)chlorido(η^2-ethene)platinate(II)] | 24.3 ± 2.6 | > 50 | 43.67 ± 3.87 | 73.82 ± 5.60 | > 100 | > 100 | > 50 | 0.629 ± 0.009 | 27.23 | 52.36 ± 4.02 | solubility in water (in words) [8]: moderately soluble in water; half-life time (τ1/2) in water ([9]; CE): >72 h |
| C=C.NCCC(=O)[O][Pt][Cl] [2b, (Ethylene,O-trans)(β-alaninato-N,O)chlorido(η^2-ethene)platinate(II)] | 0.77 ± 0.08 |  |  |  | > 100 | > 100 |  | 3.099 ± 0.149 |  |  | half-life time (τ1/2) in water ([9]; CE): 1.7 ± 0.2 h |
| CC(=O)Oc1ccccc1C(=O)O [ASA, acetylsalicylic acid, reference compound] |  |  |  |  |  |  |  |  |  |  | inhibition at 10 µM ([3]; 10 μM): 17.3%; inhibition at 10 µM ([10]; 10 μM): 9.33% |
| C=C.[Cl-].[Cl-].[Cl-].[K+].[Pt+2] [ZS, potassium trichloro(ethylene)platinate(II), reference compound] |  |  | 90.83 |  |  |  |  |  | 8.30 |  | time to quantitative conversion to the trans-aquo complex after dissolution in water ([11]; water): ≤ 2 min |
| N.N.[Cl][Pt][Cl] [cisplatin, reference compound] |  | 13.3 ± 0.87 |  |  | 29 ± 4.28 | 13.9 ± 5.16 | 14.8 ± 1.23 |  |  |  | metabolic activity (residual) on MDA-MB-231 [2]: 8.71%; metabolic activity (residual) on A2780cis [6]: 4.71% |
| C=C.NC(Cc1c[nH]cn1)C(=O)O.[Cl][Pt] [compound 3, (L-Histidinato-N,N)chlorido(η^2-ethene)platinate(II)] | 12.0 ± 3.0 |  |  |  | > 100 | > 100 |  | 2.392 ± 0.185 |  |  |  |
| C=CCCOC(=O)c1ccccc1OC(C)=O.[Cl][Pt-]([Cl])[Cl].[K+] [compound 5, potassium {trichlorido[η^2-(but-3-en-1-yl)-2-acetoxybenzoate]platinate(II)}] |  | > 50 | 67.84 ± 10.57 | 80.49 ± 11.10 |  |  | > 50 |  | 39.56 | 63.10 ± 8.07 | half-life in 50% methanolic solution ([11]; 50% methanolic solution, previously measured): 69.6 ± 3.0 h |
| C=CCCOC(=O)c1ccccc1OC(C)=O [compound 6, but-3-en-1-yl 2-acetoxybenzoate] |  |  |  |  |  |  |  |  |  |  | IC50 ([2]; Homo sapiens, MDA-MB-231): > 50 µM; inhibition at 10 µM ([3]; 10 μM): 23.7 ± 9.86%; inhibition at 25 µM ([3]; 25 μM): 16.4 ± 8.64%; IC50 ([6]; A2780cis): > 50 µM; inhibition at 10 µM ([10]; 10 μM): 15.7 ± 14.8%; inhibition at 25 µM ([10]; 25 μM): 16.9 ± 17.2% |
| (Ethylene,N-trans)(L-alaninato-N,O)chlorido(η^2-(but-3-en-1-yl)-2-acetoxybenzoate)platinate(II) [compound 4] | >72 | 15.4 ± 0.74 | 56.51 ± 0.72 | 65.95 ± 4.01 | 22.5 ± 3.23 | 20.63 ± 0.11 | 22.5 ± 0.97 | 3.383 ± 0.016 | 20.04 | 60.50 ± 7.63 | metabolic activity (residual) on MDA-MB-231 [2]: 7.71%; metabolic activity (residual) on A2780cis [6]: 33.13%; solubility in water (in words) [8]: better solubility in water; half-life time (τ1/2) in aqueous environment, 50% methanol solution ([9]; 50% methanol solution (footnote a of Table 4), CE): >72 ^a h; release of olefin in aqueous environment ([9]; after 72 h): about 20% |
